“Also recorded” adds a separate entry of the source.
Legend:
Assay type in all cases: in vivo, human
[1] = test system: subjects with various hematologic or solid malignancies; assay: Phase 1/2 clinical study Part A, dose escalation (MTD determination); conditions: oral
Procedure: The study was designed as a Phase 1/2 trial consisting of two parts: dose escalation (Part A) and dose expansion (Part B).
Part A was an open-label, dose-escalating study of subjects with various hematologic or solid malignancies. The primary objectives were to determine the maximum tolerated dose (MTD) and the preliminary PK of Compound 1. The MTD of Compound 1 was determined to be 45 mg/day, and the nontolerated dose (NTD) was determined to be 60 mg/day. The PK and PD data supported once daily dosing with Compound 1.

[2] = test system: subjects with HCC; assay: Phase 1/2 clinical study Part B, dose expansion: efficacy (RECIST response, OS, PFS) in HCC subjects
Excerpt: Part B, the preliminary efficacy-seeking phase, was an open-label, dose-expansion study, which involved subjects with HCC.
(§1) Subjects received continuous daily dosing of Compound 1 in 28-day cycles (FIG. 1). Therapy was discontinued if there was evidence of disease progression, but subjects continued to receive Compound 1 as long as the investigator considered that the subjects derived benefit from treatment. Therapy was discontinued if there was unacceptable toxicity or if the subject decided to withdraw from the study. Subjects were contacted 28 days after the last dose of study drug to assess the status of adverse events (AEs) and to determine whether any new events or death had occurred. In addition to those subjects who had died on study, approximately 28 subjects were consented for follow-up every 2 months (±1 week) after completing the treatment phase in order to determine their date of death and complete an overall survival analysis.
Accordingly to the original protocol of Part B, 25 HCC patients started treatment of Compound 1 at 45 mg/day. After the protocol Amendment 9, 28 new HCC subjects in an additional cohort were started at 30 mg/day. The appropriateness of the 30 mg/day dose was supported by the PK and PD data from Part A. Compound 1 was administered orally, in an uninterrupted once daily schedule with no rest period between each 28-day cycle. Subjects continued to receive Compound 1 for as long as they derived benefit from treatment as judged by the investigator.
All efficacy analyses were based on both the TP and EE Population. Subjects were evaluated for efficacy during Cycles 2, 4, 6, and every 3 months after Cycle 6. The primary efficacy variable was response rate. Efficacy endpoints for HCC matured once all enrolled subjects had withdrawn from the study.
Tumor response for HCC was based on investigator's overall evaluation with RECIST. Response rate was determined by a best overall response of either CR or PR. Disease control rate (DCR) included CR, PR, and SD.
OS was defined as the time from first dose to death. All deaths, regardless of the cause of death, were included. Subjects who had not died were censored at the last contact date when the subject was known to be alive or the clinical cut-off date, whichever was earlier.
Median of OS times were calculated using the Kaplan-Meier method and the corresponding 95% CIs were presented.

[3] = test system: alpha-fetoprotein (AFP); assay: Assessment of AFP in HCC patients; conditions: two HBV positive HCC patients with PR (FIG. 10)
Procedure: For the HCC subjects, baseline and change from baseline in AFP and HBV viral load (HBsAg positive subjects only) were summarized with descriptive statistics. In addition, a Wilcoxon's signed rank test was conducted to analyze change from baseline in AFP at selected scheduled visits. The p-values of such tests were provided. Change from baseline in HBV viral load was analyzed similarly. The percentage of subjects with a >50% decline from baseline in AFP was summarized for the TP.

[4] = Phase 1/2 clinical study Part B: safety and tolerability in HCC subjects; conditions: subjects with HCC
Excerpt: The primary objectives for Part B were (a) to determine the safety and tolerability of Compound 1 when administered orally and (b) to determine the preliminary PK of Compound 1 following both single and multiple oral dosing of Compound 1.
as §1

[5] = PK analysis: plasma concentration in HCC patients by HBV status; conditions: after oral Compound 1, first treatment cycle; FIGS. 3A, 3B
Procedure: The PK profiles of Compound 1 and its metabolite M1 were determined from serial blood and urine collections during the first treatment cycle. Plasma and urine Compound 1 and M1 were measured using validated chiral liquid chromatography-mass spectrometry methods. The lower limit of quantification (LLOQ) in plasma was 1.00 or 2.00 ng/mL for Compound 1 and 10.0 ng/mL for M1. The LLOQ in urine was 5.00 ng/mL for Compound 1 and 20 ng/mL for M1. […]

## CO[C@H]1CC[C@H](N2C(=O)CNc3ncc(-c4ccc(C(C)(C)O)nc4)nc32)CC1 [Compound 1, 7-(6-(2-hydroxypropan-2-yl)pyridin-3-yl)-1-((trans)-4-methoxycyclohexyl)-3,4-dihydropyrazino[2,3-b]pyrazin-2(1H)-one]
[1]
  maximum tolerated dose (MTD): 45 mg/day
  nontolerated dose (NTD): 60 mg/day
[2]; EE Population
  DCR: 68.3%
  ORR: 7.3%
  rate of tumor regression relative to pretreatment: 56.1%
[2]; HBV infected HCC patients
  median OS: 12.07 months
[2]; HBV negative subgroups
  ORR: 0%
[2]; HBV negative subjects
  disease control rate (DCR): 43.9%
  median OS: 22.4 weeks
  median PFS: 14.4 weeks
  target tumor shrinkage rate: 39.0%
[2]; HBV positive subjects
  ORR: 25%
  disease control rate (DCR): 91.7%
  median OS: 52.4 weeks
  median PFS: 14.8 weeks
  target tumor shrinkage rate: 66.7%
[2]; HCC TP
  complete response (CR): No subject experienced a CR
  overall response rate (ORR): 5.7%
  subjects with best response of SD: 49.1%
[2]; HCC cohort, RECIST 1.1 (FIG. 7)
  number of subjects with >30% regression of target tumor lesion: Five
[2]; HCC cohort, all patients (FIG. 5A)
  median OS: 6.9 months
[2]; HCC cohort, all patients (FIG. 6A)
  median PFS: 16 weeks
[2]; HCC cohort, all HBV positive
  number of subjects achieving PR: 3 subjects
[2]; TP
  median OS: 30.0 weeks
  median PFS: 3.7 months
[2]; all subjects (HCC TP)
  disease control rate (DCR): 54.7%
  rate of target tumor shrinkage (target lesion regression relative to pretreatment): 45.3%
[2]; non-HBV infected HCC patients
  median OS: 5.16 months
[2]; the 3 subjects who reached PR
  median duration of response (DOR): 124.0 days
[2]; the 26 subjects with best response of SD
  median duration of SD: 112.0 days
[2]; two HBV infected HCC patients, Patient A and Patient B (FIG. 9)
  radiographic response at first on-treatment restaging compared to baseline: regression of intrathoracic metastases; also recorded: intrahepatic tumor regression
[3]
  AFP on treatment compared to baseline: early clinically significant, marked reduction of AFP
[4]
  tolerability: well tolerated
[5]
  plasma exposure in HBV infected HCC patients (n=12) versus non-HBV infected HCC patients (n=39): comparable to the exposure observed in non-HBV infected HCC patients

From patent US11096940B2, “Treatment of hepatocellular carcinoma characterized by hepatitis B virus infection” (Celgene Corporation, priority 2017, dated 2021)
